Measurements: EP0452101B1, “Spiro bridged and unbridged heterocyclic compounds” (ISRAEL INSTITUTE FOR BIOLOGICAL RESEARCH, priority 1990, dated 1991)
Read-outs that look alike come from different tables or passages of the source.

How the values were obtained:
m1 receptors = biological target: T1, m1 receptors (Rattus norvegicus, UniProt P08482); test: PI hydrolysis in CHO cells transfected with m1 receptors; assay type: cell-based; conditions: CHO m1
T1 construct: expressed in transfected cells; host or cells: CHO cells
T1 sequence (P08482 1-460): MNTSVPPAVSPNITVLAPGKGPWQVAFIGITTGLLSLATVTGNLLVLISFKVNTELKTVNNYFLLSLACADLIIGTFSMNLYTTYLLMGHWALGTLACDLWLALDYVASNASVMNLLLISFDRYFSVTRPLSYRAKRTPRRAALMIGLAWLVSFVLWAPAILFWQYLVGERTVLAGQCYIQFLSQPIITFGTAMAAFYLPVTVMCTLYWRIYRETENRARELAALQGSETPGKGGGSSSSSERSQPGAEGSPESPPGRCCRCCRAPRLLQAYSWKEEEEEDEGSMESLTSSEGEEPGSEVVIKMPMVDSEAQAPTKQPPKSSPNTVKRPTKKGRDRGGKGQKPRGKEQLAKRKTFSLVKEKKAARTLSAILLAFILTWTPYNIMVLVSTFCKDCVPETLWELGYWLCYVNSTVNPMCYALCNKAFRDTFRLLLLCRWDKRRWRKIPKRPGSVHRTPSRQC

M2 muscarinic receptors = biological target: T2, M2 muscarinic receptors (Rattus norvegicus, UniProt P10980); test: Displacement of 3H-QNB from rat cerebellum, 50 mM phosphate buffer; assay type: binding; conditions: for Ki / % H / % H2 / %L / % L2: cerebellum; for RATIOS d:c: KL2 : KH2 cerebellum (3H-QNB)
T2 construct: displacing from rat brain homogenates, cerebellum or frontal cortex; from tissue; host or cells: rat cerebellum homogenates
T2 sequence (P10980 1-466): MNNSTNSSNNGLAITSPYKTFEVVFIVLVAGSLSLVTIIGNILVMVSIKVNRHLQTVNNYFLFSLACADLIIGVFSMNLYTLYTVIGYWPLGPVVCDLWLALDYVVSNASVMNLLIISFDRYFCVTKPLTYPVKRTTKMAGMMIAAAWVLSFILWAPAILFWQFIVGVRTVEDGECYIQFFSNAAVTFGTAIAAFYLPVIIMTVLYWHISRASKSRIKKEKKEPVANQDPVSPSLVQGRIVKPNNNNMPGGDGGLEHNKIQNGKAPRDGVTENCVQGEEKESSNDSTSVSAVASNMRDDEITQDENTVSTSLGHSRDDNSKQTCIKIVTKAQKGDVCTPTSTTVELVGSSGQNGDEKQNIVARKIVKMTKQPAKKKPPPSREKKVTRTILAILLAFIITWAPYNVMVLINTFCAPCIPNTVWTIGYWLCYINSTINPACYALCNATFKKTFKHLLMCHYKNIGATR

M1 muscarinic receptor [1] = biological target: T3, M1 muscarinic receptor (Rattus norvegicus, UniProt P08482); test: Displacement of 3H-QNB from rat cerebral cortex, 50 mM phosphate buffer; assay type: binding; conditions: for RATIOS c:a: KH2 cerebellum : KH1 cortex (3H-QNB); for % H1 / % L1: cortex, Table 5; for RATIOS b:a: KL1 : KH1 cortex (3H-QNB); for RATIOS d:b: KL2 cerebellum : KL1 cortex (3H-QNB)
T3 sequence (P08482 1-460): T1 sequence (P08482 1-460)

muscarinic receptors = test: (-)3H-QNB binding to rat cerebral cortex homogenates with and without Cu++ treatment
[2] = system: rat cerebral cortex synaptosomes; test: Synaptosomal 3H-ACh release, basal and K+-evoked; conditions: 0.1 mM
Description: The effects of AF150 (and for comparison purposes, AF125, MeN-A-343 and oxotremorine) on basal- and K^+-evoked release of ^3H-ACh were studied on synaptosomes prepared from rat cerebral cortex using the methods described in detail by Pittel et al (J. Neurochem., 55: 665-672, 1990). […] On the other hand, the action of AF150 on presynaptic muscarinic receptors, causing an increase in K^+-evoked ACh release, can be considered either as an M2 antagonistic or an M1 agonistic effect. […] The existence of muscarinic autoreceptors that increase ACh release was manifested also in the PNS in smooth muscle preparation (Kilbinger and Nafziger, Naunyn Schmiedebergs Arch. Pharmacol. 328: 304-309, 1985).

M1 muscarinic receptor [3] = biological target: T3, M1 muscarinic receptor; test: Displacement of 3H-PZ from rat cerebral cortex, 10 mM phosphate buffer; assay type: binding; parameters: from tissue; host or cells: rat cerebral cortex homogenates; conditions: for RATIOS c:a: KH cerebellum (3H-QNB) : KH cortex (3H-PZ)
[4] = biological target: T4, m3 subtype (SK-N-SH cells) (Homo sapiens, UniProt P20309); test: PI hydrolysis in SK-N-SH neuroblastoma cells; assay type: cell-based
T4 construct: endogenous in cells; host or cells: SK-N-SH human neuroblastoma cells
T4 sequence (P20309 whole entry): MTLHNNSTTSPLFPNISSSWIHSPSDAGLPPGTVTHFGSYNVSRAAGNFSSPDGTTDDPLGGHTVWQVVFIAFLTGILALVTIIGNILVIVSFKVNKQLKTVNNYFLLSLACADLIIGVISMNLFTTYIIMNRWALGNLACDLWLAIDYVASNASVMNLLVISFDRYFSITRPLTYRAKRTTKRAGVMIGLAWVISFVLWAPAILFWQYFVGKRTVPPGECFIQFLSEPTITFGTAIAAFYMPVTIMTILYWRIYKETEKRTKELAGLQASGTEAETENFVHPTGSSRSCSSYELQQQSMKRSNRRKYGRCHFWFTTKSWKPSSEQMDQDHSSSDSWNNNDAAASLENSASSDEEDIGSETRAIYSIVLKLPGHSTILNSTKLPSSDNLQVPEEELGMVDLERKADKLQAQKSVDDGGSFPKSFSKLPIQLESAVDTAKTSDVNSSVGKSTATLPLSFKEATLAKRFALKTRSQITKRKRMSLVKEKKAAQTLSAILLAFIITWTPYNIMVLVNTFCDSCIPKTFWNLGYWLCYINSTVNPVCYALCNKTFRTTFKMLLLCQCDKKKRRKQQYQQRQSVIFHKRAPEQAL
Procedure: (§1) The new compounds AF150, AF151, AF150(S) and AF125 were assayed for their ability to stimulate PI in CHO cells transfected with m1 and m3 receptors, respectively (Buck and Fraser, loc cit), and in cultured human neuroblastoma cells, line SK-N-SH, which express mainly the m3 subtype, but not the m1 subtype (Pinkas-Kramarski et al, Neurosci. Lett. 188: 335-340, 1990; Luthin et al Mol. Pharmacol. 34: 327-333, 1988). These compounds were also assayed on cultured PC12 cells which express mainly m4 subtype receptors and are coupled to inhibition of AC activity (Pinkas-Kramarski et al, loc cit).
(§2) Stimulation of PI breakdown was assayed using the method described by Stein et al (EMBO J. 7: 3031-3035, 1988), and modulation of AC activity was assayed by the method of Stein et al, loc cit and Pinkas-Kramarski et al (FEBS Lett., 239: 174-178, 1988). […]

M1 muscarinic receptor [5] = biological target: T3, M1 muscarinic receptor; test: Displacement of 3H-PZ from cortical binding sites, Tris/Mn buffer, with and without GppNHp; parameters: from tissue; host or cells: rat cerebral cortex homogenates
Description: The binding of agonists to M1 muscarinic receptors and the effect of guanylyl imidophosphate (GppNHp). Agonists are known to be coupled with guanine nucleotide binding proteins (G proteins).
Non-hydrolyzable guanine nucleotides such as GppNHp dissociate the G protein from the receptor and decrease the affinity of the receptor for agonists but not for antagonists. […] Molec.
Under these conditions agonists of high efficacy ("full agonists") bind directly to the M1 receptor subtype with two affinities. […] The ratio of low and high affinities (KL/KH) of the M1 receptor may predict the relative efficacies of agonists to activate putative M1 receptor-mediated second messenger systems.
KH, KL, %H and %L are the apparent inhibition constants of the tested ligands for the high and low affinity sites, respectively. G is GppNHp (guanylyl imidodiphosphate), and was used in 0.1 mM concentration. Displacement of ^3H-PZ from cortical binding sites was performed in Tris/Mn buffer (pH 7.4) for one hour at 25°C; the buffer included 1 mM EDTA and 2mM Mn^++ ions. […] The binding data were analyzed using a GraphPAD program and were fitted to one or two components. Values are means from 1-3 experiments carried out in triplicates.

[6] = biological target: T5, m4 subtype receptors (PC12 cells) (Rattus norvegicus, UniProt P08485); test: Inhibition of adenylate cyclase activity in PC12 cells; assay type: cell-based; conditions: PC12 m4; tested at 1mM
T5 construct: endogenous in cells; host or cells: PC12 cells
T5 sequence (P08485 1-478): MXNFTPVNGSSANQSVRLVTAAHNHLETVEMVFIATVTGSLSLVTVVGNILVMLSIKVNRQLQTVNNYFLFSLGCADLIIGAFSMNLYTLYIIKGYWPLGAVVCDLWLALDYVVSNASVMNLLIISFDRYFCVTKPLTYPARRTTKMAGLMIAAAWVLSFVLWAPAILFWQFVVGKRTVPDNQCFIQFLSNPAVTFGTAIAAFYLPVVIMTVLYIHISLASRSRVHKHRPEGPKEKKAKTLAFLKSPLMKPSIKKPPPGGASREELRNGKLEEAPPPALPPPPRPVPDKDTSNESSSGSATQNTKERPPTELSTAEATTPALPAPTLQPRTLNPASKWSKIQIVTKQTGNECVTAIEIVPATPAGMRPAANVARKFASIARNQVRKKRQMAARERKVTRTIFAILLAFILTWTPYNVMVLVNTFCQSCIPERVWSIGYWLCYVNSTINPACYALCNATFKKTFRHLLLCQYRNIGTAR
Procedure: as §1, §2

[7] = 3H-QNB-Binding KH2 (c), Table 5
[8] = with Cu++ pretreatment (100 µM, 30 minutes)
[9] = with Cu++ pretreatment (100 µM, 30 minutes), read-out: KL
[10] = without pretreatment, read-out: KH
[11] = without pretreatment, read-out: KL
[12] = 3H-QNB-Binding KL2 (d), Table 5

CC1=NCC2(CCN(C)CC2)S1 [AF150(S), 2-Methyl-spiro(1,3-thiazoline-5,4')-1'-methylpiperidine]
PI, % of carbachol effect (m1 receptors): 17% | PI (phosphoinositides hydrolysis) (m1 receptors; tested at 1mM): +

C[N+](C)(C)CC#CCOC(=O)Nc1cccc(Cl)c1 [McN-A-343]
Ki (M2 muscarinic receptors; [7]): 11 µM | % H (M2 muscarinic receptors; Table 4): 100% | Ki (M2 muscarinic receptors; Table 4, read-out: 3H-QNB-Binding KH (c)): 24.4 µM | % H2 (M2 muscarinic receptors; Table 5): 100% | RATIOS c:a (M1 muscarinic receptor [1]): 1.9 | % H1 (M1 muscarinic receptor [1]): 100% | %H (% of high affinity state) (muscarinic receptors; [8]): 30±7% | Ki (muscarinic receptors; with Cu++ pretreatment (100 µM, 30 minutes), read-out: KH): 0.18 ± 0.09 µM | Ki (muscarinic receptors; [9]): 5.7 ± 0.2 µM | %H (% of high affinity state) (muscarinic receptors; without pretreatment): 13±5% | Ki (muscarinic receptors; [10]): 0.34 ± 0.1 µM | Ki (muscarinic receptors; [11]): 8.5 ± 0.8 µM | Basal 3H-ACh release [2]: 144% | K+-evoked 3H-ACh release [2]: 172% | % H (M1 muscarinic receptor [3]): 100% | Ki (M1 muscarinic receptor [3]; 3H-PZ-Binding KH (a)): 3.8 µM | RATIOS c:a (M1 muscarinic receptor [3]): 6.4

O=C1CCCN1CC#CCN1CCCC1 [Oxotremorine]
Ki (M2 muscarinic receptors; [7]): 0.014 µM | Ki (M2 muscarinic receptors; 3H-QNB-Binding KH (c), Table 4): 0.014 µM | Ki (M2 muscarinic receptors; [12]): 0.58 µM | Ki (M2 muscarinic receptors; 3H-QNB-Binding KL (d), Table 4): 0.58 µM | RATIOS d:c (M2 muscarinic receptors): 41 | % H (M2 muscarinic receptors; Table 4): 35% | %L (M2 muscarinic receptors; Table 4): 65% | % H2 (M2 muscarinic receptors; Table 5): 35% | % L2 (M2 muscarinic receptors; Table 5): 65% | RATIOS c:a (M1 muscarinic receptor [1]): 0.9 | RATIOS b:a (M1 muscarinic receptor [1]): 100 | RATIOS d:b (M1 muscarinic receptor [1]): 0.36 | % H1 (M1 muscarinic receptor [1]): 13% | % L1 (M1 muscarinic receptor [1]): 87% | %H (% of high affinity state) (muscarinic receptors; [8]): 51% | %H (% of high affinity state) (muscarinic receptors; with Cu++ pretreatment (100 µM, 30 minutes), listed as 3): 51±7% | Ki (muscarinic receptors; [9]): 7.2 ± 1.7 µM | %H (% of high affinity state) (muscarinic receptors; without pretreatment): 32% | %H (% of high affinity state) (muscarinic receptors; without pretreatment, listed as 3): 32±3% | Ki (muscarinic receptors; [10]): 0.02 ± 0.005 µM | Ki (muscarinic receptors; [11]): 13.3 ± 1.4 µM | K+-evoked 3H-ACh release [2]: 56%

C[N+](C)(C)CC#CCN1CCCC1=O [Oxotremorine-M, reference compound]
Ki (M2 muscarinic receptors; [7]): 0.069 µM | Ki (M2 muscarinic receptors; 3H-QNB-Binding KH (c), Table 4): 0.069 µM | Ki (M2 muscarinic receptors; [12]): 5.2 µM | Ki (M2 muscarinic receptors; 3H-QNB-Binding KL (d), Table 4): 5.2 µM | RATIOS d:c (M2 muscarinic receptors): 75 | % H (M2 muscarinic receptors; Table 4): 49% | %L (M2 muscarinic receptors; Table 4): 51% | % H2 (M2 muscarinic receptors; Table 5): 49% | % L2 (M2 muscarinic receptors; Table 5): 51% | RATIOS c:a (M1 muscarinic receptor [1]): 0.6 | RATIOS b:a (M1 muscarinic receptor [1]): 336 | RATIOS d:b (M1 muscarinic receptor [1]): 0.14 | % H1 (M1 muscarinic receptor [1]): 26% | % L1 (M1 muscarinic receptor [1]): 74% | accumulation of inositol-1-phosphate (IP1) stimulated over basal level [4]: 5.24 fold | % H (M1 muscarinic receptor [5]; +G (0.1 mM GppNHp)): 2.7% | %L (M1 muscarinic receptor [5]; +G (0.1 mM GppNHp)): 73% | % H (M1 muscarinic receptor [5]; -G): 53% | %L (M1 muscarinic receptor [5]; -G): 47% | Ki (M1 muscarinic receptor [5]; KH, +G (0.1 mM GppNHp)): 0.35 µM | Ki (M1 muscarinic receptor [5]; KH, -G (without GppNHp)): 0.11 µM | Ki (M1 muscarinic receptor [5]; KL, +G (0.1 mM GppNHp)): 4.2 µM | Ki (M1 muscarinic receptor [5]; KL, -G): 6.7 µM | KL-G / KH-G (M1 muscarinic receptor [5]; ratio of low and high affinities without GppNHp): 61 | % H (M1 muscarinic receptor [3]): 53% | %L (M1 muscarinic receptor [3]): 47% | RATIOS b:a (M1 muscarinic receptor [3]): 67 | Ki (M1 muscarinic receptor [3]; 3H-PZ-Binding KH (a)): 0.1 µM | Ki (M1 muscarinic receptor [3]; 3H-PZ-Binding KL (b)): 6.7 µM | RATIOS c:a (M1 muscarinic receptor [3]): 0.69 | RATIOS d:b (M1 muscarinic receptor [3]; KL cerebellum (3H-QNB) : KL cortex (3H-PZ)): 0.78

C[N+](C)(C)CCOC(N)=O [Carbachol, reference compound]
AC (adenylate cyclase activity) [6]: +++
